# PMC4893628, “Chalcone-based Selective Inhibitors of a C4 Plant Key Enzyme as Novel Potential Herbicides” (Scientific Reports, 2016)
# Read-outs that look alike come from different tables or passages of the source.
# Columns and labels:
# Amaranthus retroflexus = experiment: In planta growth experiment, A. retroflexus; format: in vivo; settings: for Influence on plants: shoots sprayed, 3 mM; for dry weight: six days after treatment, both experiments
# How it was run: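 Single top spray of 3 mM compound (2.4% DMSO, 0.1% Tween) onto two-leaf-stage plants in a climate chamber (22/20 °C, 16 h/8 h); controls got vehicle only.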
# Bacillus subtilis 168 = experiment: Bacterial growth in microscale cultivation, B. subtilis; format: cell-based; settings: for activity at 4 µM / activity at 40 µM / activity at 120 µM / activity at 400 µM / Lag Phase / activity at 0.1 µM / activity at 1 µM / activity at 10 µM: relative to control
# How it was run: (§1)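 In a BioLector microscale system shaken at 1200 rpm, growth was tracked by backscatter at 620 nm, and final signal, growth rate (h⁻¹) and lag-phase length were scored against DMSO-only controls. Starting OD600 was 0.5, or 0.25 for B. subtilis. Inhibitors came from DMSO stocks, with trans-chalcone capped at 400 μM and 2'-hydroxychalcone at 100 μM.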
# [1] = test system: Escherichia coli K-12 MG1655; experiment: Bacterial growth in microscale cultivation, E. coli; format: cell-based; settings: for activity at 4 µM / activity at 40 µM / activity at 400 µM / activity at 0.1 µM / activity at 1 µM / activity at 10 µM / activity at 0.3 µM / activity at 3 µM / activity at 30 µM: Escherichia coli; for activity at 4 µM / activity at 40 µM / activity at 400 µM / Lag Phase / activity at 0.1 µM / activity at 1 µM / activity at 10 µM: relative to control
# How it was run: as §1
smiles,measurement,setting,value
"O=C(/C=C/c1ccc(O)cc1)c1ccccc1O [Compound 3, 2′,4-Dihydroxychalcone]",Influence on plants,Amaranthus retroflexus,No
same,activity at 4 µM,"Bacillus subtilis 168; Bacillus subtilis, 168, complex medium, 4 µM, read-out: Final Backscatter",95.2%
same,activity at 4 µM,"Bacillus subtilis 168; Bacillus subtilis, 168, complex medium, 4 µM, read-out: Growth rate",99.5%
same,activity at 40 µM,"Bacillus subtilis 168; Bacillus subtilis, 168, complex medium, 40 µM, read-out: Final Backscatter",97.1%
same,activity at 40 µM,"Bacillus subtilis 168; Bacillus subtilis, 168, complex medium, 40 µM, read-out: Growth rate",108%
same,activity at 120 µM,"Bacillus subtilis 168; Bacillus subtilis, 168, complex medium, 120 µM, read-out: Final Backscatter",102%
same,activity at 120 µM,"Bacillus subtilis 168; Bacillus subtilis, 168, complex medium, 120 µM, read-out: Growth rate",114%
same,activity at 400 µM,"Bacillus subtilis 168; Bacillus subtilis, 168, complex medium, 400 µM, read-out: Final Backscatter",91.6%
same,activity at 400 µM,"Bacillus subtilis 168; Bacillus subtilis, 168, complex medium, 400 µM, read-out: Growth rate",92.8%
same,activity at 4 µM,"Bacillus subtilis 168; Bacillus subtilis, 168, minimal medium, 4 µM, read-out: Final Backscatter",101%
same,activity at 4 µM,"Bacillus subtilis 168; Bacillus subtilis, 168, minimal medium, 4 µM, read-out: Growth rate",130%
same,activity at 40 µM,"Bacillus subtilis 168; Bacillus subtilis, 168, minimal medium, 40 µM, read-out: Final Backscatter",99.1%
same,activity at 40 µM,"Bacillus subtilis 168; Bacillus subtilis, 168, minimal medium, 40 µM, read-out: Growth rate",119%
same,activity at 120 µM,"Bacillus subtilis 168; Bacillus subtilis, 168, minimal medium, 120 µM, read-out: Final Backscatter",100%
same,activity at 120 µM,"Bacillus subtilis 168; Bacillus subtilis, 168, minimal medium, 120 µM, read-out: Growth rate",115%
same,activity at 400 µM,"Bacillus subtilis 168; Bacillus subtilis, 168, minimal medium, 400 µM, read-out: Final Backscatter",102%
same,activity at 400 µM,"Bacillus subtilis 168; Bacillus subtilis, 168, minimal medium, 400 µM, read-out: Growth rate",113%
same,Lag Phase,"Bacillus subtilis 168; complex medium, 4 µM","105,7%"
same,Lag Phase,"Bacillus subtilis 168; complex medium, 40 µM","105,7%"
same,Lag Phase,"Bacillus subtilis 168; complex medium, 120 µM","125,5%"
same,Lag Phase,"Bacillus subtilis 168; complex medium, 400 µM","151,3%"
same,Lag Phase,"Bacillus subtilis 168; minimal medium, 4 µM","99,0%"
same,Lag Phase,"Bacillus subtilis 168; minimal medium, 40 µM","101,0%"
same,Lag Phase,"Bacillus subtilis 168; minimal medium, 120 µM","111,3%"
same,Lag Phase,"Bacillus subtilis 168; minimal medium, 400 µM","151,4%"
same,activity at 4 µM,"[1]; MG1655, complex medium, 4 µM, read-out: Final Backscatter",101%
same,activity at 4 µM,"[1]; MG1655, complex medium, 4 µM, read-out: Growth rate",88.3%
same,activity at 40 µM,"[1]; MG1655, complex medium, 40 µM, read-out: Final Backscatter",102%
same,activity at 40 µM,"[1]; MG1655, complex medium, 40 µM, read-out: Growth rate",95%
same,activity at 400 µM,"[1]; MG1655, complex medium, 400 µM, read-out: Growth rate",99.2%
same,activity at 4 µM,"[1]; MG1655, minimal medium, 4 µM, read-out: Final Backscatter",100%
same,activity at 4 µM,"[1]; MG1655, minimal medium, 4 µM, read-out: Growth rate",106%
same,activity at 40 µM,"[1]; MG1655, minimal medium, 40 µM, read-out: Final Backscatter",99.1%
same,activity at 40 µM,"[1]; MG1655, minimal medium, 40 µM, read-out: Growth rate",95.3%
same,activity at 400 µM,"[1]; MG1655, minimal medium, 400 µM, read-out: Final Backscatter",101%
same,activity at 400 µM,"[1]; MG1655, minimal medium, 400 µM, read-out: Growth rate",108%
same,Lag Phase,"[1]; complex medium, 4 µM","101,4%"
same,Lag Phase,"[1]; complex medium, 40 µM","102,1%"
same,Lag Phase,"[1]; complex medium, 400 µM","97,8%"
same,Lag Phase,"[1]; minimal medium, 4 µM","99,3%"
same,Lag Phase,"[1]; minimal medium, 40 µM","100,0%"
same,Lag Phase,"[1]; minimal medium, 400 µM","98,6%"
"O=C(/C=C/c1ccc(O)c(O)c1)c1ccc(O)c(O)c1O [Compound 12, 2′,3′,4′,3,4-Pentahydroxy-chalcone]",Influence on plants,Amaranthus retroflexus,Yes
same,dry weight,Amaranthus retroflexus,significantly reduced
same,activity at 0.1 µM,"Bacillus subtilis 168; Bacillus subtilis, 168, complex medium, 0.1 µM, read-out: Final Backscatter",93.5%
same,activity at 0.1 µM,"Bacillus subtilis 168; Bacillus subtilis, 168, complex medium, 0.1 µM, read-out: Growth rate",96.7%
same,activity at 1 µM,"Bacillus subtilis 168; Bacillus subtilis, 168, complex medium, 1 µM, read-out: Final Backscatter",93.9%
same,activity at 1 µM,"Bacillus subtilis 168; Bacillus subtilis, 168, complex medium, 1 µM, read-out: Growth rate",104%
same,activity at 10 µM,"Bacillus subtilis 168; Bacillus subtilis, 168, complex medium, 10 µM, read-out: Final Backscatter",90.6%
same,activity at 10 µM,"Bacillus subtilis 168; Bacillus subtilis, 168, complex medium, 10 µM, read-out: Growth rate",109%
same,activity at 0.1 µM,"Bacillus subtilis 168; Bacillus subtilis, 168, minimal medium, 0.1 µM, read-out: Final Backscatter",102%
same,activity at 0.1 µM,"Bacillus subtilis 168; Bacillus subtilis, 168, minimal medium, 0.1 µM, read-out: Growth rate",123%
same,activity at 1 µM,"Bacillus subtilis 168; Bacillus subtilis, 168, minimal medium, 1 µM, read-out: Final Backscatter",98.6%
same,activity at 1 µM,"Bacillus subtilis 168; Bacillus subtilis, 168, minimal medium, 1 µM, read-out: Growth rate",113%
same,activity at 10 µM,"Bacillus subtilis 168; Bacillus subtilis, 168, minimal medium, 10 µM, read-out: Final Backscatter",104%
same,activity at 10 µM,"Bacillus subtilis 168; Bacillus subtilis, 168, minimal medium, 10 µM, read-out: Growth rate",115%
same,Lag Phase,"Bacillus subtilis 168; complex medium, 0.1 µM","110,6%"
same,Lag Phase,"Bacillus subtilis 168; complex medium, 1 µM","102,7%"
same,Lag Phase,"Bacillus subtilis 168; complex medium, 10 µM","94,7%"
same,Lag Phase,"Bacillus subtilis 168; minimal medium, 0.1 µM","98,2%"
same,Lag Phase,"Bacillus subtilis 168; minimal medium, 1 µM","100,6%"
same,Lag Phase,"Bacillus subtilis 168; minimal medium, 10 µM","100,0%"
same,activity at 0.1 µM,"[1]; MG1655, complex medium, 0.1 µM, read-out: Final Backscatter",98.5%
same,activity at 0.1 µM,"[1]; MG1655, complex medium, 0.1 µM, read-out: Growth rate",106%
same,activity at 1 µM,"[1]; MG1655, complex medium, 1 µM, read-out: Final Backscatter",100%
same,activity at 1 µM,"[1]; MG1655, complex medium, 1 µM, read-out: Growth rate",100%
same,activity at 10 µM,"[1]; MG1655, complex medium, 10 µM, read-out: Final Backscatter",97.9%
same,activity at 10 µM,"[1]; MG1655, complex medium, 10 µM, read-out: Growth rate",111%
same,activity at 0.1 µM,"[1]; MG1655, minimal medium, 0.1 µM, read-out: Final Backscatter",99.7%
same,activity at 0.1 µM,"[1]; MG1655, minimal medium, 0.1 µM, read-out: Growth rate",99.8%
same,activity at 1 µM,"[1]; MG1655, minimal medium, 1 µM, read-out: Final Backscatter",98.5%
same,activity at 1 µM,"[1]; MG1655, minimal medium, 1 µM, read-out: Growth rate",100%
same,activity at 10 µM,"[1]; MG1655, minimal medium, 10 µM, read-out: Final Backscatter",101%
same,activity at 10 µM,"[1]; MG1655, minimal medium, 10 µM, read-out: Growth rate",104%
same,Lag Phase,"[1]; complex medium, 0.1 µM","108,5%"
same,Lag Phase,"[1]; complex medium, 1 µM","102,8%"
same,Lag Phase,"[1]; complex medium, 10 µM","111,4%"
same,Lag Phase,"[1]; minimal medium, 0.1 µM","99,0%"
same,Lag Phase,"[1]; minimal medium, 1 µM","102,0%"
same,Lag Phase,"[1]; minimal medium, 10 µM","95,1%"
"O=C(/C=C/c1ccccc1)c1ccc(O)c(O)c1O [Compound 10, 2′,3′,4′-Trihydroxychalcone]",Influence on plants,Amaranthus retroflexus,Yes
same,dry weight,Amaranthus retroflexus,significantly reduced
same,activity at 0.3 µM,"Bacillus subtilis 168; Bacillus subtilis, 168, read-out: Final Backscatter, complex medium, 0.3 µM, relative to control",102%
same,activity at 3 µM,"Bacillus subtilis 168; Bacillus subtilis, 168, read-out: Final Backscatter, complex medium, 3 µM, relative to control",101%
same,activity at 30 µM,"Bacillus subtilis 168; Bacillus subtilis, 168, read-out: Final Backscatter, complex medium, 30 µM, relative to control",103%
same,activity at 0.3 µM,"Bacillus subtilis 168; Bacillus subtilis, 168, read-out: Final Backscatter, minimal medium, 0.3 µM, relative to control",108%
same,activity at 3 µM,"Bacillus subtilis 168; Bacillus subtilis, 168, read-out: Final Backscatter, minimal medium, 3 µM, relative to control",110%
same,activity at 30 µM,"Bacillus subtilis 168; Bacillus subtilis, 168, read-out: Final Backscatter, minimal medium, 30 µM, relative to control",106%
same,activity at 0.3 µM,"Bacillus subtilis 168; Bacillus subtilis, 168, read-out: Growth rate, complex medium, 0.3 µM, relative to control",106%
same,activity at 3 µM,"Bacillus subtilis 168; Bacillus subtilis, 168, read-out: Growth rate, complex medium, 3 µM, relative to control",109%
same,activity at 30 µM,"Bacillus subtilis 168; Bacillus subtilis, 168, read-out: Growth rate, complex medium, 30 µM, relative to control",112%
same,activity at 0.3 µM,"Bacillus subtilis 168; Bacillus subtilis, 168, read-out: Growth rate, minimal medium, 0.3 µM, relative to control",88.5%
same,activity at 3 µM,"Bacillus subtilis 168; Bacillus subtilis, 168, read-out: Growth rate, minimal medium, 3 µM, relative to control",94.4%
same,activity at 30 µM,"Bacillus subtilis 168; Bacillus subtilis, 168, read-out: Growth rate, minimal medium, 30 µM, relative to control",90.6%
same,Lag Phase,"Bacillus subtilis 168; complex medium, 0.3 µM","100,0%"
same,Lag Phase,"Bacillus subtilis 168; complex medium, 3 µM","104,2%"
same,Lag Phase,"Bacillus subtilis 168; complex medium, 30 µM","97,9%"
same,Lag Phase,"Bacillus subtilis 168; minimal medium, 0.3 µM","98,3%"
same,Lag Phase,"Bacillus subtilis 168; minimal medium, 3 µM","96,6%"
same,Lag Phase,"Bacillus subtilis 168; minimal medium, 30 µM","99,3%"
same,activity at 0.3 µM,"[1]; MG1655, read-out: Final Backscatter, complex medium, 0.3 µM, relative to control",106%
same,activity at 3 µM,"[1]; MG1655, read-out: Final Backscatter, complex medium, 3 µM, relative to control",106%
same,activity at 30 µM,"[1]; MG1655, read-out: Final Backscatter, complex medium, 30 µM, relative to control",98.9%
same,activity at 0.3 µM,"[1]; MG1655, read-out: Final Backscatter, minimal medium, 0.3 µM, relative to control",105%
same,activity at 3 µM,"[1]; MG1655, read-out: Final Backscatter, minimal medium, 3 µM, relative to control",105%
same,activity at 30 µM,"[1]; MG1655, read-out: Final Backscatter, minimal medium, 30 µM, relative to control",109%
same,activity at 0.3 µM,"[1]; MG1655, read-out: Growth rate, complex medium, 0.3 µM, relative to control",109%
same,activity at 3 µM,"[1]; MG1655, read-out: Growth rate, complex medium, 3 µM, relative to control",99.8%
same,activity at 30 µM,"[1]; MG1655, read-out: Growth rate, complex medium, 30 µM, relative to control",104%
same,activity at 0.3 µM,"[1]; MG1655, read-out: Growth rate, minimal medium, 0.3 µM, relative to control",96.3%
same,activity at 3 µM,"[1]; MG1655, read-out: Growth rate, minimal medium, 3 µM, relative to control",92%
same,activity at 30 µM,"[1]; MG1655, read-out: Growth rate, minimal medium, 30 µM, relative to control",99.2%
same,Lag Phase,"[1]; complex medium, 0.3 µM","92,1%"
same,Lag Phase,"[1]; complex medium, 3 µM","94,8%"
same,Lag Phase,"[1]; complex medium, 30 µM","118,4%"
same,Lag Phase,"[1]; minimal medium, 0.3 µM","92,1%"
same,Lag Phase,"[1]; minimal medium, 3 µM","90,6%"
same,Lag Phase,"[1]; minimal medium, 30 µM","92,1%"
